Data taken from ChEMBL document CHEMBL1201862, “PubChem BioAssay data set” (2004).
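Compound exposure: 48 hours, 5 concentrations, 96-well plates. Here, GI50 denotes the concentration required for 50% inhibition of growth.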 Active and inactive are the calls of the source. Rule as the data show it: active = GI50 up to about 1.1 µM and inactive = higher.

Columns and labels:
Assay in all cases: inhibition of tumour cell growth, NCI panel, 48 h
A549 = test system: A549
ACHN = test system: ACHN
EKVX = test system: EKVX
HCT-116 = test system: HCT-116
HL-60 = test system: HL-60
HOP-92 = test system: HOP-92
HT-29 = test system: HT-29
K562 = test system: K562
MDA-MB-231 = test system: MDA-MB-231
MDA-MB-435 = test system: MDA-MB-435
MOLT-4 = test system: MOLT-4
Malme-3M = test system: Malme-3M
NCI/ADR-RES = test system: NCI/ADR-RES
OVCAR-3 = test system: OVCAR-3
PC-3 = test system: PC-3
UACC-62 = test system: UACC-62
Hs-578T = test system: Hs-578T
SF-268 = test system: SF-268

Row | SMILES | GI50 (A549) | GI50 (ACHN) | GI50 (EKVX) | GI50 (HCT-116) | GI50 (HL-60) | GI50 (HOP-92) | GI50 (HT-29) | GI50 (K562) | GI50 (MDA-MB-231) | GI50 (MDA-MB-435) | GI50 (MOLT-4) | GI50 (Malme-3M) | GI50 (NCI/ADR-RES) | GI50 (OVCAR-3) | GI50 (PC-3) | GI50 (UACC-62) | GI50 (Hs-578T) | GI50 (SF-268)
1 | CSc1nc(Cl)c(Br)c(Nc2cnc(O)nc2O)n1 | 19.2 µM (inactive) | 18.7 µM (inactive) | 15.3 µM (inactive) | 14.6 µM (inactive) | 2.06 µM (inactive) | 13.1 µM (inactive) | 15.8 µM (inactive) | 26.9 µM (inactive) | 13.6 µM (inactive) | 27.5 µM (inactive) | 13.4 µM (inactive) | 20.7 µM (inactive) | 19.7 µM (inactive) | 14.6 µM (inactive) | 18.8 µM (inactive) | 15.2 µM (inactive) | – | –
2 | O=C(CC(C(=O)c1ccco1)c1ccsc1)c1ccco1 (centres undefined) | 28.8 µM (inactive) | > 100 µM (inactive) | > 100 µM (inactive) | > 100 µM (inactive) | 89.7 µM (inactive) | > 100 µM (inactive) | > 100 µM (inactive) | 78 µM (inactive) | 56.8 µM (inactive) | > 100 µM (inactive) | 37.4 µM (inactive) | – | 38.6 µM (inactive) | 91.2 µM (inactive) | – | 90.4 µM (inactive) | > 100 µM (inactive) | > 100 µM (inactive)
3 | S=C(Nc1cccc(Cl)c1)Nc1ccccn1 | > 100 µM (inactive) | – | 82 µM (inactive) | > 100 µM (inactive) | > 100 µM (inactive) | – | > 100 µM (inactive) | > 100 µM (inactive) | – | > 100 µM (inactive) | > 100 µM (inactive) | 27.6 µM (inactive) | > 100 µM (inactive) | > 100 µM (inactive) | > 100 µM (inactive) | > 100 µM (inactive) | > 100 µM (inactive) | > 100 µM (inactive)
4 | O=c1[nH]c(=O)n(COCCOCc2ccccc2)cc1Nc1ccccc1 | > 100 µM (inactive) | > 100 µM (inactive) | > 100 µM (inactive) | > 100 µM (inactive) | 41.9 µM (inactive) | > 100 µM (inactive) | > 100 µM (inactive) | > 100 µM (inactive) | > 100 µM (inactive) | > 100 µM (inactive) | 59.4 µM (inactive) | > 100 µM (inactive) | > 100 µM (inactive) | > 100 µM (inactive) | > 100 µM (inactive) | > 100 µM (inactive) | – | > 100 µM (inactive)
5 | C=CCN1CCC(O)(c2cc(C(=O)OCC)[nH]c2-c2cc(C)no2)C1 (centres undefined) | > 100 µM (inactive) | > 100 µM (inactive) | > 100 µM (inactive) | > 100 µM (inactive) | > 100 µM (inactive) | > 100 µM (inactive) | > 100 µM (inactive) | > 100 µM (inactive) | > 100 µM (inactive) | > 100 µM (inactive) | > 100 µM (inactive) | > 100 µM (inactive) | > 100 µM (inactive) | > 100 µM (inactive) | > 100 µM (inactive) | > 100 µM (inactive) | – | > 100 µM (inactive)
6 | CC(C)=CCC12Cc3ccc(O)cc3C(C(C)CN1)C2C (centres undefined) | > 100 µM (inactive) | > 100 µM (inactive) | > 100 µM (inactive) | 59.7 µM (inactive) | 28.1 µM (inactive) | 44 µM (inactive) | 44.6 µM (inactive) | 34.4 µM (inactive) | > 100 µM (inactive) | 44.9 µM (inactive) | 52 µM (inactive) | > 100 µM (inactive) | > 100 µM (inactive) | – | – | > 100 µM (inactive) | 67.6 µM (inactive) | > 100 µM (inactive)
7 | Cn1c(S)nc(C(N)=O)c1N | > 100 µM (inactive) | > 100 µM (inactive) | > 100 µM (inactive) | – | > 100 µM (inactive) | – | > 100 µM (inactive) | > 100 µM (inactive) | > 100 µM (inactive) | > 100 µM (inactive) | > 100 µM (inactive) | > 100 µM (inactive) | > 100 µM (inactive) | > 100 µM (inactive) | > 100 µM (inactive) | > 100 µM (inactive) | > 100 µM (inactive) | > 100 µM (inactive)
8 | CC(=O)NC1C(OCc2ccccc2)OC(CO)C(O)C1OCC(=O)N[C@@H](C)C(=O)N[C@H](CCC(=O)NCCNc1ccc([N+](=O)[O-])c2[nH]c3ccccc3c(=O)c12)C(N)=O (some centres undefined) | – | 12.1 µM (inactive) | 20.8 µM (inactive) | 6.56 µM (inactive) | 54.7 µM (inactive) | 21.6 µM (inactive) | 19.4 µM (inactive) | 58.9 µM (inactive) | 28.1 µM (inactive) | 22.4 µM (inactive) | – | 84.5 µM (inactive) | 21.6 µM (inactive) | 36.7 µM (inactive) | – | 18.7 µM (inactive) | 71.9 µM (inactive) | –
9 | Cc1nc(N)c(N2CCN(Cc3ccccc3)CC2)c(O)n1 | > 100 µM (inactive) | > 100 µM (inactive) | > 100 µM (inactive) | > 100 µM (inactive) | > 100 µM (inactive) | – | > 100 µM (inactive) | > 100 µM (inactive) | > 100 µM (inactive) | > 100 µM (inactive) | > 100 µM (inactive) | > 100 µM (inactive) | > 100 µM (inactive) | > 100 µM (inactive) | > 100 µM (inactive) | – | > 100 µM (inactive) | > 100 µM (inactive)
10 | COc1cc(S(=O)(=O)Nc2ccc(-c3csc(N4C(=O)C(Cl)C4c4cccs4)n3)cc2)ccc1Cl (centres undefined) | > 100 µM (inactive) | > 100 µM (inactive) | 7.55 µM (inactive) | 98.9 µM (inactive) | 39.1 µM (inactive) | 19.7 µM (inactive) | > 100 µM (inactive) | 31.8 µM (inactive) | – | 72.9 µM (inactive) | 11.4 µM (inactive) | > 100 µM (inactive) | > 100 µM (inactive) | > 100 µM (inactive) | > 100 µM (inactive) | 22.2 µM (inactive) | > 100 µM (inactive) | 39 µM (inactive)
11 | C[N+]1(C)CC=C(N2CCOCC2)CC1 | > 10 µM (inactive) | > 10 µM (inactive) | > 10 µM (inactive) | > 10 µM (inactive) | > 10 µM (inactive) | – | > 10 µM (inactive) | > 10 µM (inactive) | > 10 µM (inactive) | > 10 µM (inactive) | > 10 µM (inactive) | > 10 µM (inactive) | > 10 µM (inactive) | > 10 µM (inactive) | > 10 µM (inactive) | > 10 µM (inactive) | > 10 µM (inactive) | > 10 µM (inactive)
12 | CCCCCCCCCCC[N+]1(Cc2ccccc2)CC2CCN(Cc3ccccc3)CC2C1 (centres undefined) | 1.2 µM (inactive) | 1.17 µM (inactive) | 0.323 µM (active) | 0.284 µM (active) | 0.106 µM (active) | 0.451 µM (active) | 0.377 µM (active) | 0.125 µM (active) | – | – | 0.199 µM (active) | 0.342 µM (active) | 5.09 µM (inactive) | 0.371 µM (active) | 0.234 µM (active) | – | 0.354 µM (active) | 0.555 µM (active)
13 | CN(C)/C=C/C=C(/C=N/S(=O)(=O)C(F)(F)F)C1C=CN(S(=O)(=O)C(F)(F)F)C=C1 | 32.4 µM (inactive) | 28.8 µM (inactive) | 30.1 µM (inactive) | 29.2 µM (inactive) | 19.8 µM (inactive) | 32.7 µM (inactive) | 27.5 µM (inactive) | 37.8 µM (inactive) | 31.1 µM (inactive) | 25.8 µM (inactive) | 26.2 µM (inactive) | 32 µM (inactive) | 30.3 µM (inactive) | 32.4 µM (inactive) | – | 42.3 µM (inactive) | 69.2 µM (inactive) | 48.5 µM (inactive)
14 | Cc1ccc(C(=O)Nc2ccc(CP(=O)(O)O)cc2)cc1NC(=O)c1cccc(NC(=O)Nc2cccc(C(=O)Nc3cc(C(=O)Nc4ccc(CP(=O)(O)O)cc4)ccc3C)c2)c1 | > 100 µM (inactive) | > 100 µM (inactive) | > 100 µM (inactive) | > 100 µM (inactive) | > 100 µM (inactive) | – | > 100 µM (inactive) | > 100 µM (inactive) | > 100 µM (inactive) | > 100 µM (inactive) | – | > 100 µM (inactive) | > 100 µM (inactive) | > 100 µM (inactive) | > 100 µM (inactive) | > 100 µM (inactive) | > 100 µM (inactive) | > 100 µM (inactive)
15 | C=C1C(OC2O[C@@H]3O[C@@]4(C)CC[C@H]5[C@H](C)CC[C@@H](C2=C)[C@@]35O4)O[C@@H]2O[C@@]3(C)CC[C@H]4[C@H](C)CC[C@@H]1[C@@]24O3 (some centres undefined) | > 50 µM (inactive) | > 50 µM (inactive) | > 50 µM (inactive) | > 50 µM (inactive) | > 50 µM (inactive) | > 50 µM (inactive) | > 50 µM (inactive) | > 50 µM (inactive) | > 50 µM (inactive) | > 50 µM (inactive) | > 50 µM (inactive) | > 50 µM (inactive) | – | > 50 µM (inactive) | > 50 µM (inactive) | > 50 µM (inactive) | > 50 µM (inactive) | > 50 µM (inactive)
16 | COc1nc(C#CC2(O)CCCCC2)nc(OC)n1 | 13.9 µM (inactive) | 8.49 µM (inactive) | 18.1 µM (inactive) | 9.4 µM (inactive) | 2.64 µM (inactive) | – | 11.7 µM (inactive) | 6.49 µM (inactive) | 3.34 µM (inactive) | 5.82 µM (inactive) | 3.53 µM (inactive) | 3.1 µM (inactive) | 23.6 µM (inactive) | 8.15 µM (inactive) | 5.62 µM (inactive) | 6.55 µM (inactive) | 11.5 µM (inactive) | 14.3 µM (inactive)
17 | CC(C)=Cc1cc2c(cc1O)CCC1C2CC[C@@]2(C)C1CC[C@@H]2O (some centres undefined) | 12.5 µM (inactive) | 14 µM (inactive) | 15.6 µM (inactive) | 10.3 µM (inactive) | 15.2 µM (inactive) | 21.3 µM (inactive) | 14.9 µM (inactive) | 3.75 µM (inactive) | 16.3 µM (inactive) | – | 6.41 µM (inactive) | 10.4 µM (inactive) | 7.66 µM (inactive) | – | 11.7 µM (inactive) | – | 18.5 µM (inactive) | 16.7 µM (inactive)
